ChEMBL document CHEMBL5724696, “Autophagy assay results for EUbOPEN Chemogenomics Library” (2024)

How the values were obtained:
Assay type in all cases: functional, Homo sapiens
TERT-RPE1 = test: (§1) Here: values are normalized to the negative (DMSO; defined as 0% autophagy induction) and positive (250nM Torin1; mTOR inhibitor; defined as maximal inducer of autophagy = 100%) control compounds and represented as % of autophagy induction. […] The impact of autophagy induction on cells is complex and depends on the affected target. As such, the magnitude of a phenotype may not be equally mirrored in the %-value of autophagy induction and vice versa. The dynamics of the induction may indicate the mode of activation: e.g. activation via phosphorylation or a signaling cascade may occur fast, while activation via transcription factors may take considerably longer. […] Of note, treatment concentrations may be sub-optimal for specific compounds, leading to false negative annotations.; conditions: Culturing Media DMEM/F12 (1:1), 1 % Penicillin/Streptomycin, 10% Fetal bovin serum Add-On: No, Screening Media Control DMEM/F12 (1:1), Screening Media Samples DMEM/F12 (1:1)
U2OS [1] = test: as §1; conditions: Culturing Media DMEM, 1 % Penicillin/Streptomycin, 10% Fetal bovin serum Add-On: No, Screening Media Control DMEM, Screening Media Samples DMEM
U2OS [2] = test: as §1; conditions: Culturing Media DMEM, 1 % Penicillin/Streptomycin, 10% Fetal bovin serum Add-On: No, Screening Media Control DMEM, Screening Media Samples DMEM; remark: listed apart in the source
[3] = Compound Concentration 0.5 uM, Timepoint 12 hours
[4] = Compound Concentration 0.5 uM, Timepoint 24 hours
[5] = Compound Concentration 0.5 uM, Timepoint 36 hours
[6] = Compound Concentration 0.5 uM, Timepoint 60 hours
[7] = Compound Concentration 2 uM, Timepoint 12 hours
[8] = Compound Concentration 2 uM, Timepoint 24 hours
[9] = Compound Concentration 2 uM, Timepoint 36 hours
[10] = Compound Concentration 2 uM, Timepoint 60 hours
[11] = Compound Concentration 10 uM, Timepoint 12 hours
[12] = Compound Concentration 10 uM, Timepoint 24 hours
[13] = Compound Concentration 10 uM, Timepoint 36 hours
[14] = Compound Concentration 10 uM, Timepoint 60 hours

Q: Which autophagy induction (TERT-RPE1; [3]) does the source give for `C[C@]1(C(=O)N(CCCC(=O)O)Cc2cccc(Cl)c2)CCN1C(=O)c1csc2ccccc12` [GLPG-0974] here?
A: Its autophagy induction is -9.58%.

Q: And the autophagy induction (TERT-RPE1; [4])?
A: The autophagy induction was -12.1708%.

Q: And the autophagy induction (TERT-RPE1; [5])?
A: The autophagy induction was -12.5657%.

Q: And the autophagy induction (TERT-RPE1; [6])?
A: Its autophagy induction is -12.3909%.

Q: What about the autophagy induction (TERT-RPE1; [7]) of the same compound?
A: The autophagy induction was -4.812%.

Q: What about the autophagy induction (TERT-RPE1; [8]) of the same compound?
A: The autophagy induction was -8.05%.

Q: What about the autophagy induction (TERT-RPE1; [9]) of the same compound?
A: Its autophagy induction is -10.5216%.

Q: And the autophagy induction (TERT-RPE1; [10])?
A: The autophagy induction was -11.4009%.

Q: What about the autophagy induction (TERT-RPE1; [11]) of the same compound?
A: The autophagy induction was -6.234%.

Q: And the autophagy induction (TERT-RPE1; [12])?
A: Its autophagy induction is -7.969%.

Q: And the autophagy induction (TERT-RPE1; [13])?
A: The autophagy induction was -9.743%.

Q: And the autophagy induction (TERT-RPE1; [14])?
A: The autophagy induction was -14.0611%.

Q: What about the autophagy induction (U2OS [1]; [3]) of the same compound?
A: Its autophagy induction is 2.89%.

Q: And the autophagy induction (U2OS [1]; [4])?
A: Its autophagy induction is 1.055%.

Q: What about the autophagy induction (U2OS [1]; [5]) of the same compound?
A: Its autophagy induction is -0.2915%.

Q: What about the autophagy induction (U2OS [1]; [6]) of the same compound?
A: The autophagy induction was 0.8021%.

Q: What about the autophagy induction (U2OS [1]; [7]) of the same compound?
A: Its autophagy induction is 5.8948%.

Q: What about the autophagy induction (U2OS [1]; [8]) of the same compound?
A: Its autophagy induction is 0.1613%.

Q: What about the autophagy induction (U2OS [1]; [9]) of the same compound?
A: The autophagy induction was -0.9761%.

Q: What about the autophagy induction (U2OS [1]; [10]) of the same compound?
A: The autophagy induction was -1.363%.

Q: And the autophagy induction (U2OS [1]; [11])?
A: The autophagy induction was 4.366%.

Q: What about the autophagy induction (U2OS [1]; [12]) of the same compound?
A: The autophagy induction was 0.7536%.

Q: What about the autophagy induction (U2OS [1]; [13]) of the same compound?
A: Its autophagy induction is -0.03596%.

Q: And the autophagy induction (U2OS [1]; [14])?
A: The autophagy induction was 0.5874%.

Q: What about the autophagy induction (U2OS [2]; [3]) of the same compound?
A: The autophagy induction was -10.0746%.

Q: And the autophagy induction (U2OS [2]; [4])?
A: Its autophagy induction is -10.8247%.

Q: And the autophagy induction (U2OS [2]; [5])?
A: The autophagy induction was -4.098%.

Q: What about the autophagy induction (U2OS [2]; [6]) of the same compound?
A: The autophagy induction was -4.538%.

Q: And the autophagy induction (U2OS [2]; [7])?
A: The autophagy induction was 5.378%.

Q: And the autophagy induction (U2OS [2]; [8])?
A: Its autophagy induction is 3.105%.

Q: What about the autophagy induction (U2OS [2]; [9]) of the same compound?
A: The autophagy induction was 6.198%.

Q: What about the autophagy induction (U2OS [2]; [10]) of the same compound?
A: Its autophagy induction is 1.696%.

Q: And the autophagy induction (U2OS [2]; [11])?
A: The autophagy induction was 3.852%.

Q: What about the autophagy induction (U2OS [2]; [12]) of the same compound?
A: Its autophagy induction is 1.348%.

Q: And the autophagy induction (U2OS [2]; [13])?
A: Its autophagy induction is 0.8582%.

Q: What about the autophagy induction (U2OS [2]; [14]) of the same compound?
A: The autophagy induction was -7.082%.

Q: For `CCc1cc(C(C)=O)c(O)cc1OCCCCCC(C)(C)c1nn[nH]n1` [LY-255283], which autophagy induction (TERT-RPE1; [3]) is on record?
A: The autophagy induction was -9.9842%.

Q: And the autophagy induction (TERT-RPE1; [4])?
A: The autophagy induction was -11.9426%.

Q: What about the autophagy induction (TERT-RPE1; [5]) of the same compound?
A: Its autophagy induction is -14.7708%.

Q: What about the autophagy induction (TERT-RPE1; [6]) of the same compound?
A: Its autophagy induction is -17.4457%.

Q: And the autophagy induction (TERT-RPE1; [7])?
A: The autophagy induction was -8.34%.

Q: What about the autophagy induction (TERT-RPE1; [8]) of the same compound?
A: The autophagy induction was -9.195%.

Q: And the autophagy induction (TERT-RPE1; [9])?
A: The autophagy induction was -15.7799%.

Q: And the autophagy induction (TERT-RPE1; [10])?
A: Its autophagy induction is -19.0275%.

Q: What about the autophagy induction (TERT-RPE1; [11]) of the same compound?
A: Its autophagy induction is -6.621%.

Q: And the autophagy induction (TERT-RPE1; [12])?
A: Its autophagy induction is -4.037%.

Q: And the autophagy induction (TERT-RPE1; [13])?
A: The autophagy induction was -5.452%.

Q: And the autophagy induction (TERT-RPE1; [14])?
A: The autophagy induction was -5.811%.

Q: What about the autophagy induction (U2OS [1]; [3]) of the same compound?
A: The autophagy induction was 3.867%.

Q: What about the autophagy induction (U2OS [1]; [4]) of the same compound?
A: The autophagy induction was -0.4862%.

Q: What about the autophagy induction (U2OS [1]; [5]) of the same compound?
A: The autophagy induction was -0.9692%.

Q: What about the autophagy induction (U2OS [1]; [6]) of the same compound?
A: The autophagy induction was -0.6256%.

Q: What about the autophagy induction (U2OS [1]; [7]) of the same compound?
A: The autophagy induction was 7.835%.

Q: And the autophagy induction (U2OS [1]; [8])?
A: The autophagy induction was 0.4992%.

Q: What about the autophagy induction (U2OS [1]; [9]) of the same compound?
A: The autophagy induction was -1.36%.

Q: What about the autophagy induction (U2OS [1]; [10]) of the same compound?
A: The autophagy induction was 0.1348%.

Q: What about the autophagy induction (U2OS [1]; [11]) of the same compound?
A: The autophagy induction was 10.6288%.

Q: And the autophagy induction (U2OS [1]; [12])?
A: Its autophagy induction is 4.072%.

Q: What about the autophagy induction (U2OS [1]; [13]) of the same compound?
A: Its autophagy induction is 1.093%.

Q: What about the autophagy induction (U2OS [1]; [14]) of the same compound?
A: The autophagy induction was 0.5552%.

Q: And the autophagy induction (U2OS [2]; [3])?
A: The autophagy induction was 7.95%.

Q: What about the autophagy induction (U2OS [2]; [4]) of the same compound?
A: Its autophagy induction is 0.1788%.

Q: What about the autophagy induction (U2OS [2]; [5]) of the same compound?
A: The autophagy induction was 0.4616%.

Q: And the autophagy induction (U2OS [2]; [6])?
A: Its autophagy induction is 2.676%.

Q: What about the autophagy induction (U2OS [2]; [7]) of the same compound?
A: Its autophagy induction is 6.9255%.

Q: And the autophagy induction (U2OS [2]; [8])?
A: Its autophagy induction is 1.248%.

Q: What about the autophagy induction (U2OS [2]; [9]) of the same compound?
A: Its autophagy induction is 3.296%.

Q: And the autophagy induction (U2OS [2]; [10])?
A: Its autophagy induction is 1.486%.

Q: And the autophagy induction (U2OS [2]; [11])?
A: The autophagy induction was -12.1559%.

Q: And the autophagy induction (U2OS [2]; [12])?
A: Its autophagy induction is -5.674%.

Q: And the autophagy induction (U2OS [2]; [13])?
A: The autophagy induction was -8.912%.

Q: What about the autophagy induction (U2OS [2]; [14]) of the same compound?
A: The autophagy induction was -14.6191%.
